Data published in patent publication US20150164968A1, “Method of Producing Banana-Derived Composition and Biologically Active Substance Containing Same” (priority 2013, published 2015).

Test: Action of antioxidation, OXY Adsorbent Test (FREE)
Conditions: solution at 10 mg/ml in ultrapure water
Description: The banana-derived composition 4 (the secondary refined product) as the biologically active substance and vitamin C were dissolved in ultrapure water to prepare solutions each at a concentration of 10 mg/ml. An antioxidation ability was measured twice for each of the prepared solutions. In detail, the antioxidation ability against oxidation through hypochlorous acid (HClO) was measured by means of Free Radical Elective Evaluator (FREE) manufactured by […] Co., Ltd. Oxygen (OXY) Adsorbent Test was applied to the measurement. As a result of the measurement, a concentration of HClO neutralized is obtained in the unit of μmol HClO/mL. A higher concentration value means a better HClO neutralization ability, that is to say, a stronger antioxidative action.

## O=C1O[C@H]([C@@H](O)CO)C(O)=C1O [Vitamin C, vitamin C]
  concentration of HClO neutralized, 1st measurement: 71.7 μmol HClO/mL
  concentration of HClO neutralized, 2nd measurement: 79.7 μmol HClO/mL
Average of two measurements
  concentration of HClO neutralized, Average: 75.7 μmol HClO/mL
